# Oligonucleotides are written 5' to 3', each unit as a sugar letter and its base; * is a phosphorothioate linkage, no mark a phosphodiester; rarer units and linkages stand in square brackets, end groups in braces. Plain capitals give the bases only. e = 2'-O-(2-methoxyethyl) (MOE); k = constrained ethyl (cEt); [5mC] = 5-methylcytosine; d = 2'-deoxy (DNA)
# Experiments:
# AR mRNA [1] = experiment: Dose-dependent antisense inhibition of human AR in HuVEC cells (electroporation, qRT-PCR RTS3559, IC50); type: cell-based; conditions: HuVEC
# Procedure, shortened: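 HuVEC cells dosed with antisense oligonucleotides by electroporation and treated approximately 16 hours. AR mRNA quantified by real-time qPCR with primer probe set RTS3559 and normalised to total RNA by RIBOGREEN; IC50 from dose-response.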
# AR mRNA [2] = experiment: Antisense inhibition of human AR in HuVEC cells, single concentration (electroporation, qRT-PCR RTS3559); type: cell-based
# Procedure, shortened: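 AR mRNA levels were measured with human primer-probe set RTS3559 and adjusted for total RNA (RIBOGREEN). Cells were HuVEC, with each antisense oligonucleotide delivered by electroporation at one concentration.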
# [3] = Table 29, electroporation, approximately 16 hours
# [4] = Table 33, electroporation, approximately 16 hours
# [5] = Table 20, 500 nM oligonucleotide, electroporation, approximately 24 hours, relative to untreated control
# [6] = Table 36, electroporation, approximately 16 hours
# [7] = Table 31, electroporation, approximately 16 hours
substance,measurement,setting,value
583660 (antisense kG*kA*k[5mC]*dA*d[5mC]*dA*d[5mC]*dG*dG*dT*dG*dG*dA*k[5mC]*kA*kA) [compound 583660],"percent inhibition of AR, 46.9 nM",AR mRNA [1]; [3],21%
same,"percent inhibition of AR, 187.5 nM",AR mRNA [1]; [3],39%
same,"percent inhibition of AR, 750.0 nM",AR mRNA [1]; [3],61%
same,"percent inhibition of AR, 3000.0 nM",AR mRNA [1]; [3],72%
same,IC50,AR mRNA [1]; [3],420 nM
same,% inhibition,"AR mRNA [2]; 500 nM ASO, ~24 h, Table 17",44%
583868 (kA*k[5mC]*kT*d[5mC]*dA*dG*d[5mC]*dA*dG*dT*dA*dT*d[5mC]*kT*kT*k[5mC]; antisense) [compound 583868],"percent inhibition of AR, 46.9 nM",AR mRNA [1]; [4],19%
same,"percent inhibition of AR, 187.5 nM",AR mRNA [1]; [4],31%
same,"percent inhibition of AR, 750.0 nM",AR mRNA [1]; [4],59%
same,"percent inhibition of AR, 3000.0 nM",AR mRNA [1]; [4],81%
same,IC50,AR mRNA [1]; [4],410 nM
same,% inhibition,AR mRNA [2]; [5],34%
560100 (antisense kT*kG*kG*dT*dT*dG*dA*dT*dT*dT*dA*dA*dT*kG*kG*kT) [compound 560100],percent inhibition of AR,"AR mRNA [1]; 31.25 nM, ~16 h, Table 6",16%
same,percent inhibition of AR,"AR mRNA [1]; 62.5 nM, ~16 h, Table 6",24%
same,percent inhibition of AR,"AR mRNA [1]; 125.0 nM, ~16 h, Table 6",53%
same,percent inhibition of AR,"AR mRNA [1]; 500.0 nM, ~16 h, Table 6",81%
same,percent inhibition of AR,"AR mRNA [1]; 1000.0 nM, ~16 h, Table 6",93%
same,IC50,"AR mRNA [1]; ~16 h, Table 6",100 nM
same,% inhibition,"AR mRNA [2]; 500 nM ASO, ~24 h, Table 5",91%
583833 (kT*kG*kT*dT*d[5mC]*d[5mC]*d[5mC]*d[5mC]*dT*dG*dG*dA*d[5mC]*kT*k[5mC]*kA; antisense) [compound 583833],"percent inhibition of AR, 46.9 nM",AR mRNA [1]; [4],26%
same,"percent inhibition of AR, 187.5 nM",AR mRNA [1]; [4],43%
same,"percent inhibition of AR, 750.0 nM",AR mRNA [1]; [4],70%
same,"percent inhibition of AR, 3000.0 nM",AR mRNA [1]; [4],74%
same,IC50,AR mRNA [1]; [4],260 nM
same,% inhibition,AR mRNA [2]; [5],37%
549414 (kG*kT*kT*d[5mC]*dA*dT*dT*d[5mC]*dG*dA*dA*dG*dT*kT*k[5mC]*kA) [compound 549414],percent inhibition of AR,"AR mRNA [1]; 55.6 nM, ~16 h, Table 4",21%
same,percent inhibition of AR,"AR mRNA [1]; 166.7 nM, ~16 h, Table 4",35%
same,percent inhibition of AR,"AR mRNA [1]; 500.0 nM, ~16 h, Table 4",53%
same,percent inhibition of AR,"AR mRNA [1]; 1500.0 nM, ~16 h, Table 4",76%
same,IC50,"AR mRNA [1]; ~16 h, Table 4",366 nM
same,% inhibition,"AR mRNA [2]; 500 nM ASO, electroporation, ~24 h, Table 2",81%
569222 (antisense eT*eT*kG*kA*kT*dT*dT*dA*dA*dT*dG*dG*dT*kT*kG*k[5mC]) [compound 569222],percent inhibition of AR,"AR mRNA [1]; 31.25 nM, ~16 h, Table 8",36%
same,percent inhibition of AR,"AR mRNA [1]; 62.5 nM, ~16 h, Table 8",48%
same,percent inhibition of AR,"AR mRNA [1]; 125.0 nM, ~16 h, Table 8",67%
same,percent inhibition of AR,"AR mRNA [1]; 500.0 nM, ~16 h, Table 8",91%
same,percent inhibition of AR,"AR mRNA [1]; 1000.0 nM, ~16 h, Table 8",98%
same,IC50,"AR mRNA [1]; ~16 h, Table 8",60 nM
same,% inhibition,"AR mRNA [2]; 250 nM ASO, ~24 h, Table 7",74%
584245 (kA*kG*kG*dT*dT*dA*dG*dG*dG*dA*dG*dT*dA*kG*kG*k[5mC]; antisense) [compound 584245],"percent inhibition of AR, 46.9 nM",AR mRNA [1]; [6],4%
same,"percent inhibition of AR, 187.5 nM",AR mRNA [1]; [6],33%
same,"percent inhibition of AR, 750.0 nM",AR mRNA [1]; [6],69%
same,"percent inhibition of AR, 3000.0 nM",AR mRNA [1]; [6],90%
same,IC50,AR mRNA [1]; [6],320 nM
same,% inhibition,"AR mRNA [2]; Table 25, 1,000 nM oligonucleotide, electroporation, approximately 24 hours, relative to untreated control",70%
584361 (k[5mC]*kT*kT*d[5mC]*dA*dT*dT*dG*d[5mC]*dA*dG*dG*dT*k[5mC]*kT*kG; antisense) [compound 584361],"percent inhibition of AR, 46.9 nM",AR mRNA [1]; [6],0%
same,"percent inhibition of AR, 187.5 nM",AR mRNA [1]; [6],18%
same,"percent inhibition of AR, 750.0 nM",AR mRNA [1]; [6],71%
same,"percent inhibition of AR, 3000.0 nM",AR mRNA [1]; [6],87%
same,IC50,AR mRNA [1]; [6],410 nM
same,% inhibition,"AR mRNA [2]; 1,000 nM ASO, ~24 h, Table 26",61%
583818 (antisense kT*kG*kG*dT*d[5mC]*dG*dA*dA*dG*dT*dG*d[5mC]*d[5mC]*k[5mC]*k[5mC]*k[5mC]) [compound 583818],"percent inhibition of AR, 46.9 nM",AR mRNA [1]; [7],9%
same,"percent inhibition of AR, 187.5 nM",AR mRNA [1]; [7],46%
same,"percent inhibition of AR, 750.0 nM",AR mRNA [1]; [7],71%
same,"percent inhibition of AR, 3000.0 nM",AR mRNA [1]; [7],84%
same,IC50,AR mRNA [1]; [7],310 nM
same,% inhibition,"AR mRNA [2]; Table 19, 500 nM oligonucleotide, electroporation, approximately 24 hours, relative to untreated control",42%
583969 (k[5mC]*k[5mC]*kT*dT*d[5mC]*dT*dT*d[5mC]*dG*dG*d[5mC]*dT*dG*kT*kG*kA; antisense) [compound 583969],"percent inhibition of AR, 46.9 nM",AR mRNA [1]; [4],12%
same,"percent inhibition of AR, 187.5 nM",AR mRNA [1]; [4],26%
same,"percent inhibition of AR, 750.0 nM",AR mRNA [1]; [4],66%
same,"percent inhibition of AR, 3000.0 nM",AR mRNA [1]; [4],86%
same,IC50,AR mRNA [1]; [4],440 nM
same,% inhibition,"AR mRNA [2]; Table 21, 500 nM oligonucleotide, electroporation, approximately 24 hours, relative to untreated control",44%

# From USRE48461E1, “Modulation of androgen receptor expression” (Ionis Pharmaceuticals, Inc., priority 2012, dated 2021)
